Test results taken from patent publication US8614205B2, “Glutamate receptor modulators and therapeutic agents” (priority 2009, dated 2013).
Where “and” joins values, the source holds several entries; their conditions need not be identical. Identical values can stand only once.

Experiments:
mGluR1 = target: T1, mGluR1 (Homo sapiens, UniProt Q13255); test: aequorin calcium assay, negative allosteric modulation of mGluR1; type: cell-based; settings: for mGluR1/mGluR5 Ratio: EC50 for mGluR1 divided by EC50 for mGluR5; for EC50: aequorin assay, agonist at EC80, 10000 = no activity observed at 10,000 nM
T1 construct: expression induced with doxycycline
T1 sequence (Q13255 19-1194): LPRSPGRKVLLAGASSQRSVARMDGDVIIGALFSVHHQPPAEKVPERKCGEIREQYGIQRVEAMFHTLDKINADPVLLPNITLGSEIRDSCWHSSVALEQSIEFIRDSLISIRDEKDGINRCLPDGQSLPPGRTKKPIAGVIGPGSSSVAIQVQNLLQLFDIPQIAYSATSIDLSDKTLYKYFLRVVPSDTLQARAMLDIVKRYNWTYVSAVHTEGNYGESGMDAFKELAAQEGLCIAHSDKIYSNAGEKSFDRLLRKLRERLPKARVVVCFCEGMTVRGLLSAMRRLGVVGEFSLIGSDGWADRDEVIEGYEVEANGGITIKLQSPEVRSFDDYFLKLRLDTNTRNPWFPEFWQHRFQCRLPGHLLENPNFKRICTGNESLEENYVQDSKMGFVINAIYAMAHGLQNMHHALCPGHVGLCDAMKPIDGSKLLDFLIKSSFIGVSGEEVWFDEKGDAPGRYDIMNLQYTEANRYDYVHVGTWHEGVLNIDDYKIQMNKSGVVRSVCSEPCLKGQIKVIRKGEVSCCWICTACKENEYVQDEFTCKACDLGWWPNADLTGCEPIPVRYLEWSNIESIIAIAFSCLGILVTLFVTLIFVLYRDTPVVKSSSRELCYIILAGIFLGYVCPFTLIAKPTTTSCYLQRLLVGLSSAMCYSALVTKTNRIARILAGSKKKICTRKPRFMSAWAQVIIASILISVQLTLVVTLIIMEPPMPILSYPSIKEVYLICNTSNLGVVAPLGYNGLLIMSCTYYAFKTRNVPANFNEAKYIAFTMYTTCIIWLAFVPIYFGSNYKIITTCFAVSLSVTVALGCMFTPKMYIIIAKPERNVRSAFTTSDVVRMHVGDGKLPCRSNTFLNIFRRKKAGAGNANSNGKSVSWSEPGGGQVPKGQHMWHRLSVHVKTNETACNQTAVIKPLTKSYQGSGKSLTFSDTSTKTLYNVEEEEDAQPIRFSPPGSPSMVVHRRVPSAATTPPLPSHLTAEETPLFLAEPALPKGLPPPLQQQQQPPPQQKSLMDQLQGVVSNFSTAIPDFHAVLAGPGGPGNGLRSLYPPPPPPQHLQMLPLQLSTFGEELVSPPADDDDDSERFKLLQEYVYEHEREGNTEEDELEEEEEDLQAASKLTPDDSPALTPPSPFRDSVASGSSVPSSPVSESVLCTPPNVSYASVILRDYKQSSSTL
Protocol: (§1) The ability of test compound to ameliorate the efflux of calcium cations (Ca^++) in the presence of agonist (glutamate or quisqualate) is measured by detection of light emitted by the luminescent protein aequorin triggered by binding of Ca^++. Aequorin is a photoprotein isolated from luminescent jellyfish (like various Aequorea species e.g. Aequorea victoria). Aequorin is composed of two distinct units, the apoprotein apoaequorin, with an approximate molecular weight of 22 kDa, and the prosthetic group, coelenterazine, responsible for emission of light. In the presence of molecular oxygen the two components of aequorin assemble spontaneously, forming the functional protein. Four EF-hand type regions have been identified in the structure of Aequorin and at least 3 of them function as binding sites for Ca+2 ions: Ca+2 binding to these EF hands triggers a conformational change of the protein, that leads it to oxidize its prosthetic group, coelenterazine, into excited coelenteramide and CO2. As the excited coelenteramide relaxes to the ground state, blue light (wavelength=469 nm) is emitted and can be measured by a luminometer. Negative allosteric modulator activity of test compound is expressed as a percentage of the stimulation of reference agonist (glutamate) activity at its EC80 concentration. Assay of Compounds was performed at Euroscreen SA, Gosselies, Belgium.
(§2) Cells stably transfected with mGlu1 or mGlu5 were grown 18 hours prior to the test in culture medium containing 600 ng/ml doxycycline, then were detached by gentle flushing with PBS-EDTA, recovered by centrifugation and resuspended in “assay buffer” (HBSS, 2.1 mM CaCl2, 3 μg/ml GPT (Glutamate-Pyruvate transaminase), 4 mM MEM Sodium Pyruvate, 0.1% BSA, protease free). Cells were incubated at room temperature for at least 4 h with coelenterazine-h. Dose response curves were performed using mGluR1 cells with the orthosteric agonist glutamate and negative allosteric modulator JNJ16259685. Dose response curves were performed using mGluR5 cells with the orthosteric agonist glutamate and negative allosteric modulator MPEP. For agonist testing, 30 μl of cell suspension were mixed with 30 μl of test compound or reference agonist in a 384-well plate. The resulting emission of light was recorded using the Hamamatsu Functional Drug Screening System 6000 (FDSS 6000). For negative allosteric modulator testing, 60 μl of the resulting cell suspension containing the test compound was mixed with 30 μl of the reference agonist at EC80 following an incubation of 3 min after the first injection. The resulting emission of light was recorded using FDSS 6000. […] Plates also contained the reference agonist at a concentration equivalent to the EC80 obtained during the test validation. Negative allosteric modulator activity of test compound was expressed as a percentage of the stimulation of reference agonist activity at its EC80 concentration.

mGluR5 = target: T2, mGluR5 (Homo sapiens, UniProt P41594); test: aequorin calcium assay, negative allosteric modulation of mGluR5; type: cell-based; settings: aequorin assay, agonist at EC80; 10000 = no activity observed at 10,000 nM; read-out: mGluR5 EC50
T2 construct: expression induced with doxycycline
T2 sequence (P41594 21-1212): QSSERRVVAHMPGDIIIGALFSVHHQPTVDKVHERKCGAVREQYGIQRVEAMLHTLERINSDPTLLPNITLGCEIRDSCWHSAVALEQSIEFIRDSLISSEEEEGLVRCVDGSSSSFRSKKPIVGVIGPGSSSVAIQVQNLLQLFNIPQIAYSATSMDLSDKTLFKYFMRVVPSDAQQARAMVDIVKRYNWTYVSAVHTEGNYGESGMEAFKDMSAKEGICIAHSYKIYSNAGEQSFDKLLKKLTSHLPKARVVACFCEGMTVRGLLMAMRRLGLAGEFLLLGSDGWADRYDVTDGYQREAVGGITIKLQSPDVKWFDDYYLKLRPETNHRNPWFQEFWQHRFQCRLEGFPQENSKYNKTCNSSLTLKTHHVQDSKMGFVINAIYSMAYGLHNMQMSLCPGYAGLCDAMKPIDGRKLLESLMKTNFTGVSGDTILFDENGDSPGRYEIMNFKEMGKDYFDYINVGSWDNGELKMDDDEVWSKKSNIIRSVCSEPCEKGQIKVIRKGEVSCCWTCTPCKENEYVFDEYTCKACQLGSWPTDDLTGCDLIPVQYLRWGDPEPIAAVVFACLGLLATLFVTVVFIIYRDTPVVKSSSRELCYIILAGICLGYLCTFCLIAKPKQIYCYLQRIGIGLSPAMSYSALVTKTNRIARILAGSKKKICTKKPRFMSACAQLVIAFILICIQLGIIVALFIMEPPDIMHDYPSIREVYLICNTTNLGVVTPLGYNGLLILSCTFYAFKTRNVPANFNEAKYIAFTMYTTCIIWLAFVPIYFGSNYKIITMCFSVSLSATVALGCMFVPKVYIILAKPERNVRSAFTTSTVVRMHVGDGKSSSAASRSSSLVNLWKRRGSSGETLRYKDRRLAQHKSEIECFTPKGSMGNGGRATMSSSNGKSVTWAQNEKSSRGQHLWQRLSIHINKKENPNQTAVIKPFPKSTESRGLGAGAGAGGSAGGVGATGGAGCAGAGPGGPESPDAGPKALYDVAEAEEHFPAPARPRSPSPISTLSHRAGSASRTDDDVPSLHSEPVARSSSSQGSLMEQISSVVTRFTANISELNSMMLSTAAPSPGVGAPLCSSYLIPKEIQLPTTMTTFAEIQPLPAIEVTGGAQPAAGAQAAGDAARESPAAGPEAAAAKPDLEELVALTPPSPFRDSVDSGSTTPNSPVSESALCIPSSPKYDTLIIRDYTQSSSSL
Protocol: as §1, §2

[1] = test system: hyperalgesia in partial sciatic nerve ligation rat; test: partial sciatic nerve ligation (PSN) model of neuropathic pain, paw withdrawal method; type: in vivo; settings: 100 μg intrathecal; for % MPE (0-100) 1 hr / Paw withdrawal thresholds (g; raw data) 1 hr / Raw MPE (%) 1 hr / % MPE (0-100) 3 hrs / Paw withdrawal thresholds (g; raw data) 3 hrs / Raw MPE (%) 3 hrs / % MPE (0-100) 5 hrs / Paw withdrawal thresholds (g; raw data) 5 hrs / Raw MPE (%) 5 hrs / % MPE (0-100) 24 hrs / Paw withdrawal thresholds (g; raw data) 24 hrs / Raw MPE (%) 24 hrs: PSN Sx rat
Protocol: Briefly, under gas anesthesia, the skin and muscles of the thigh were reflected to expose the sciatic nerve. About one-third to one-half of the cross-sectional area of the nerve was tightly ligated using a 7-0 nylon suture. The incision was closed in layers (suture for muscle, surgical adhesive for skin). […] Treated rats were assayed at 1, 3, 5, and 24 hr using the paw withdrawal method (L. Randall and J. Selitto, 1957, Arch. Int. Pharmacodynam., 111:409-19). […] The Partial sciatic nerve ligation assay was performed at Eurofins/Product Safety Laboratories (Dayton, N.J.).
Animals were housed in cages which conform to the size recommendations in the most recent NIH Guide for the Care and Use of Laboratory Animals. […] The animals were fed Purina Rodent Chow #5012. The animals were acclimated to the facility for 7 days prior to the study. A pre-operative baseline paw withdrawal measure was collected for all rats. […] After recovery, a pre-dosing baseline paw withdrawal threshold was collected for all rats. […] Rats were lightly anesthetized and treated with test article or vehicle. Paw withdrawal thresholds were determined at one, three, five, and 24 hours post dosing. […] Briefly, under gas anesthesia, the skin and muscles of the thigh were reflected to expose the sciatic nerve. About one third to one half of the cross-sectional area of the nerve was tightly ligated using a 7-0 nylon suture. The incision was closed in layers (suture for muscle, surgical adhesive for skin). Test article or vehicle was administered by transcutaneous injection (C. Mestre et al., 1994, J. Pharm. Tox. Meth., 32:197-200). Briefly, the rat was lightly anesthetized and placed to flex the lower lumbar vertebrae. After palpating the vertebral processes, a 26 gauge needle was inserted through a vertebral interspace. The presence of a tail flick was considered validation of the needle placement; the solution was then injected. Paw withdrawal thresholds were assessed using a paw pressure device (L. O. Randall & J. J. Selitto, 1957, Arch. Int. Pharmacodyn., 111:409-19). The behavioral endpoint was defined as paw withdrawal. Data was analyzed by two-way analysis of variance (repeated measures) with Bonferroni tests at individual time points. Paw withdrawal threshold raw values were used for the analysis, and each route of administration was analyzed separately. Vehicle-treated groups were used as the statistical comparison groups.

O=C(Nc1ccc([N+](=O)[O-])cc1Cl)c1cc(Cl)cc(Cl)c1O [Compound 2, 3,5-dichoro-N-(2-chloro-4-nitrophenyl)-2 hydroxybenzamide]
mGluR1/mGluR5 Ratio (mGluR1): 2.36 | EC50 (mGluR1): 1580 nM | EC50 (mGluR5): 669 nM

O=C(Nc1ccc([N+](=O)[O-])cc1Cl)c1ccccc1O [Compound 4, N-(2-chloro-4-nitrophenyl)-2 hydroxybenzamide]
mGluR1/mGluR5 Ratio (mGluR1): 1.73 | EC50 (mGluR1): 290 nM | EC50 (mGluR5): 168 nM

O=C(Nc1ccc(Cl)c(Cl)c1)c1cc(Cl)ccc1O [Compound 5]
mGluR1/mGluR5 Ratio (mGluR1): 1.99 | EC50 (mGluR1): 179 nM | EC50 (mGluR5): 90 nM

O=C(Nc1ccccc1)c1cc(Cl)ccc1O [Compound 6]
mGluR1/mGluR5 Ratio (mGluR1): 4.16 | EC50 (mGluR1): 3040 nM | EC50 (mGluR5): 731 nM

Cc1cccc(NC(=O)c2cc(Cl)ccc2O)c1 [Compound 8]
mGluR1/mGluR5 Ratio (mGluR1): 28.40 | EC50 (mGluR1): 2390 nM | EC50 (mGluR5): 84 nM

O=C(Nc1cccc(Br)c1)c1cc(Cl)ccc1O [Compound 9]
mGluR1/mGluR5 Ratio (mGluR1): 2.77 | EC50 (mGluR1): 459 nM | EC50 (mGluR5): 166 nM

C#Cc1cccc(NC(=O)c2cc(Cl)ccc2O)c1 [Compound 10]
mGluR1/mGluR5 Ratio (mGluR1): 7.64 | EC50 (mGluR1): 932 nM | EC50 (mGluR5): 122 nM

C=Cc1cccc(NC(=O)c2cc(Cl)ccc2O)c1 [Compound 11, 5-Chloro-2-hydroxy-N-(3-vinylphenyl)benzamide]
mGluR1/mGluR5 Ratio (mGluR1): 7.73 | EC50 (mGluR1): 371 nM | EC50 (mGluR5): 48 nM

CCc1cccc(NC(=O)c2cc(Cl)ccc2O)c1 [Compound 12, 5-Chloro-2-hydroxy-N-(3-ethylphenyl)benzamide]
mGluR1/mGluR5 Ratio (mGluR1): 6.36 | EC50 (mGluR1): 859 nM | EC50 (mGluR5): 135 nM

O=C(Nc1cccc(C(F)(F)F)c1)c1cc(Cl)ccc1O [Compound 13]
mGluR1/mGluR5 Ratio (mGluR1): 2.15 | EC50 (mGluR1): 273 nM | EC50 (mGluR5): 127 nM

O=C(Nc1cccc(Cl)c1)c1cc(Cl)ccc1O [Compound 14]
mGluR1/mGluR5 Ratio (mGluR1): 4.15 | EC50 (mGluR1): 523 nM | EC50 (mGluR5): 126 nM

N#Cc1cccc(NC(=O)c2cc(Cl)ccc2O)c1 [Compound 16, 5-Chloro-N-(3-cyanophenyl)-2-hydroxybenzamide]
mGluR1/mGluR5 Ratio (mGluR1): 42.55 | EC50 (mGluR1): > 10000 nM | EC50 (mGluR5): 235 nM

O=C(Nc1cccc(F)c1)c1cc(Cl)ccc1O [Compound 17]
mGluR1/mGluR5 Ratio (mGluR1): 4.33 | EC50 (mGluR1): 598 nM | EC50 (mGluR5): 138 nM

CC(C)(C)c1cccc(NC(=O)c2cc(Cl)ccc2O)c1 [Compound 18, 5-Chloro-N-(3-tert-butylphenyl)-2-hydroxybenzamide]
mGluR1/mGluR5 Ratio (mGluR1): 1.40 | EC50 (mGluR1): 334 nM | EC50 (mGluR5): 238 nM

Cc1cc(C)cc(NC(=O)c2cc(Cl)ccc2O)c1 [Compound 19]
mGluR1/mGluR5 Ratio (mGluR1): 9.39 | EC50 (mGluR1): 1140 nM | EC50 (mGluR5): 122 nM

O=C(Nc1cc(C(F)(F)F)cc(C(F)(F)F)c1)c1cc(Cl)ccc1O [Compound 20]
mGluR1/mGluR5 Ratio (mGluR1): 1.22 | EC50 (mGluR1): 111 nM | EC50 (mGluR5): 91 nM

CN(C)C(=O)Oc1ccc(Cl)cc1C(=O)Nc1ccc([N+](=O)[O-])cc1Cl [Compound 23, 4-chloro-2-(2-chloro-4-nitrophenylcarbamoyl)phenyl dimethyl carbamate]
EC50 (mGluR1): > 10000 nM | EC50 (mGluR5): > 10000 nM

COC(=O)[C@@H]1CCCN1C(=O)Oc1ccc(Cl)cc1C(=O)Nc1ccc([N+](=O)[O-])cc1Cl [Compound 25]
EC50 (mGluR1): > 10000 nM | EC50 (mGluR5): > 10000 nM

CC(C)(C)OC(=O)[C@@H]1CCCN1C(=O)Oc1ccc(Cl)cc1C(=O)Nc1ccc([N+](=O)[O-])cc1Cl [Compound 26]
EC50 (mGluR1): > 10000 nM | EC50 (mGluR5): > 10000 nM

O=C(Nc1ccc([N+](=O)[O-])cc1Cl)c1cc(Cl)ccc1OC(=O)N1CCC[C@H]1C(=O)O [Compound 27]
EC50 (mGluR1): > 10000 nM | EC50 (mGluR5): > 10000 nM

NCC1(CC(=O)O)CCCCC1 [Gabapentin, gabapentin, reference compound]
% MPE (0-100) 1 hr ([1]; group Average (N 6)): 63.2% | Paw withdrawal thresholds (g; raw data) 1 hr ([1]; group Average (N 6)): 165.0 g | Raw MPE (%) 1 hr ([1]; group Average (N 6)): 77.4% | % MPE (0-100) 1 hr ([1]; individual rat): 53.9% and 100.0% (3×) and 0.8% and 24.4% | Paw withdrawal thresholds (g; raw data) 1 hr ([1]; individual rat): 145 g and 250 g and 190 g and 100 g and 120 g and 185 g | Raw MPE (%) 1 hr ([1]; individual rat): 53.9% and 177.6% and 106.9% and 0.8% and 24.4% and 101.0% | % MPE (0-100) 3 hrs ([1]; group Average (N 6)): 43.5% | Paw withdrawal thresholds (g; raw data) 3 hrs ([1]; group Average (N 6)): 134.2 g | Raw MPE (%) 3 hrs ([1]; group Average (N 6)): 47.7% | % MPE (0-100) 3 hrs ([1]; individual rat): 0.0% (2×) and 34.6% (2×) and 91.7% and 100.0% | Paw withdrawal thresholds (g; raw data) 3 hrs ([1]; individual rat): 70 g and 125 g (2×) and 90 g and 165 g and 230 g | Raw MPE (%) 3 hrs ([1]; individual rat): −43.8% and 34.6% (2×) and −15.3% and 91.7% and 184.4% | % MPE (0-100) 5 hrs ([1]; group Average (N 6)): 17.4% | Paw withdrawal thresholds (g; raw data) 5 hrs ([1]; group Average (N 6)): 96.7 g | Raw MPE (%) 5 hrs ([1]; group Average (N 6)): −0.6% | % MPE (0-100) 5 hrs ([1]; individual rat): 0.0% (3×) and 43.6% and 3.8% and 56.9% | Paw withdrawal thresholds (g; raw data) 5 hrs ([1]; individual rat): 60 g and 130 g and 85 g and 100 g and 140 g and 65 g | Raw MPE (%) 5 hrs ([1]; individual rat): −49.3% and 43.6% and −16.1% and 3.8% and 56.9% and −42.7% | % MPE (0-100) 24 hrs ([1]; group Average (N 6)): 16.4% | Paw withdrawal thresholds (g; raw data) 24 hrs ([1]; group Average (N 6)): 98.3 g | Raw MPE (%) 24 hrs ([1]; group Average (N 6)): 6.7% | % MPE (0-100) 24 hrs ([1]; individual rat): 0.0% (3×) and 23.3% and 58.7% and 16.2% | Paw withdrawal thresholds (g; raw data) 24 hrs ([1]; individual rat): 85 g and 110 g and 80 g and 75 g and 135 g and 105 g | Raw MPE (%) 24 hrs ([1]; individual rat): −12.1% and 23.3% and −19.2% and −26.3% and 58.7% and 16.2% | reversing hyperalgesia ([1]; rat): effective in reversing hyperalgesia
